Test results from paper PMC10301603, “Potent and Selective Benzothiazole-Based Antimitotics with Improved Water Solubility: Design, Synthesis, and Evaluation as Novel Anticancer Agents” (Pharmaceutics, 2023).
Converted amounts (≈) assume the structure as drawn. Where two headings read alike, the source gives them in different places.

Assays:
[1] = Aqueous solubility, shake-flask method; assay type: physicochemical; conditions: pH 7.0 buffer, thermodynamic from solid, shaking flask, buffered media at pH 7.0, mean of three
Protocol: The aqueous solubility of compounds was measured in a Helios Alfa Spectrophotometer. Calibration lines at the maximum wavelength of absorbance were determined for each compound. Then, following the shake-flask method, a suspension of 5 mg of each compound in 500 µL in pH 7.0 buffer was stirred for 72 h at room temperature. The mixture was then filtrated over a […] filter to remove the insoluble fraction. The concentration of the compound in the resulting saturated solution was determined via UV absorbance measurement and interpolation in the calibration line. The aqueous solubility values are given as the average of three independent measurements.

[2] = cited from earlier work
bovine brain tubulin = experiment: Tubulin polymerization inhibition (turbidimetry); assay type: biochemical; conditions: for IC50: concentration inhibiting 50% of microtubular protein polymerization in vitro, read-out: TPI IC50
Protocol: Microtubular protein was isolated from calf brain following the modified Shelanski method, based on temperature-dependent assembly/disassembly of tubulin [45]. The protein was stored at −80 °C, and its concentration was determined using the Bradford method before each use. Tubulin polymerization, which occurs when heating a buffered tubulin sample from 4 °C to 37 °C, is accompanied by an increase in the absorbance (at 450 nm) of the sample that was monitored by a Helios α spectrophotometer. […] Then, the temperature was adjusted to 4 °C, and the temperature being shifted to 37 °C allowed for the assembly process of tubulin. The turbidity caused by tubulin polymerization was measured by the increased absorbance at 450 nm. The increase in absorbance obtained for the control sample (without the ligand), which we considered to be 100% tubulin polymerization (0% inhibition), compared with the increase in absorbance determined for the sample containing ligands yielded the degree of tubulin polymerization inhibition (TPI), which is expressed as a percentage value. For the compounds displaying TPI values over 50% at 10 µM, the IC50 value for TPI was calculated. Measurements were performed in triplicate in two independent experiments using microtubular protein from different preparations.

tumor cell lines = experiment: Cell growth inhibition assay (MTT), summary statements over several cell lines; assay type: cell-based; conditions: read-out: antiproliferative IC50
Protocol: (§1) Cells were plated in 96-well plates (100 µL/well) at the following concentrations: 30,000 cells/mL (HepG2, U87 MG, T98G, C6, LNCaP, PC3, and HT-29 cells) or 15,000 cells/mL (HeLa and MCF-7 cells). Previous experiments were performed to choose the optimal cell concentration (70–80% confluence) and avoid the formation of cell aggregates. Cells were incubated in complete DMEM or RPMI 1640 medium (see above) at 37 °C and 5% CO2 atmosphere for 24 h to allow for cell attachment to the plate. Then, every compound was added (10 µL/well) to a final concentration of 10 µM. Non-treated cells were used as negative controls. The antiproliferative activity of compounds was measured 72 h after the treatments using the MTT reagent (3-[4,5-dimethylthiazol-2-yl]-2,5-diphenyltetrazolium bromide), (MTT Thiazolyl Blue Tetrazolium Bromide, Sigma-Aldrich, St. Louis, MO, USA) dissolved in PBS at 5 mg/mL. Compounds showing antiproliferative effects at 10 µM were selected to determine their IC50 value. For that purpose, compounds were used at different concentrations ranging from 10^−10 to 10^−2 M. Measurements were performed in triplicate, and each experiment was repeated three times. The IC50 value was determined for every compound using Origin software (OriginLab, Washington, USA). To study the sensitivity to MDR efflux pumps of compounds, the IC50 values were determined by following the same procedure but in the presence of verapamil (final concentration of 10 µM).

HEK-293 cells = experiment: Cell growth inhibition assay (MTT), non-tumorigenic cells; assay type: cell-based, human; conditions: Homo sapiens, HEK293, 72 h after drug exposure, non-tumorigenic cell line
Protocol: (§2) The cell lines were obtained from ATTC (Manassas, VA, USA). HeLa (human cervix epithelioid carcinoma), MCF7 (human breast adenocarcinoma), HepG2 (human hepatocellular carcinoma), U87 MG (human glioblastoma), T98G (human glioblastoma), GL261 (murine glioma), LNCaP (human prostate cancer), PC-3 (human prostate cancer), and HEK-293 (human embryonic kidney) were grown in Dulbecco’s modified Eagle’s medium (DMEM, Gibco, Waltham, MA, USA), supplemented with 10% (v/v) heat-inactivated fetal bovine serum (HIFBS, Sigma-Aldrich, St. Louis, MO, USA)), 2 mM L-glutamine, 100 μg/mL streptomycin, and 100 units/mL penicillin (Gibco, Waltham, MA, USA) at 37 °C in saturated humidity atmosphere containing 95% air and 5% CO2. Cell line HT-29 (human colon carcinoma) was grown in Roswell Park Memorial Institute (RPMI) 1640 medium (Gibco, Whaltman, MA, USA) supplemented with 10% HIFBS, 100 μg/mL streptomycin, and 100 units/mL penicillin (Gibco, Whaltman, MA, USA) at 37 °C in humidified 95% air and 5% CO2 atmosphere. MycoAlert kit (Lonza, Norwest, Australia) was used to routinely check the presence of mycoplasma, and only mycoplasma-free cells were employed in the experiments.
as §1

HT-29 cells [3] = experiment: Cell growth inhibition (MTT) in the presence of 10 µM verapamil (sensitivity to MDR efflux pumps); assay type: cell-based, human; conditions: 10 µM verapamil (P-gp/MDR1 inhibitor)
Protocol: as §1

GL261 cells = experiment: Cell growth inhibition assay (MTT); assay type: cell-based, murine; conditions: Mus musculus, GL261, 72 h after drug exposure
Protocol: as §2, §1

HeLa cells [4] = experiment: Cell growth inhibition assay (MTT); assay type: cell-based, human; conditions: Homo sapiens, HeLa, 72 h after drug exposure
Protocol: as §2, §1

U87MG cells = experiment: Cell growth inhibition assay (MTT); assay type: cell-based, human; conditions: Homo sapiens, U-87 MG; MTT, 72 h after drug exposure
Protocol: as §2, §1

MCF7 cells = experiment: Cell growth inhibition assay (MTT); assay type: cell-based, human; conditions: Homo sapiens, MCF7; MTT, 72 h after drug exposure
Protocol: as §2, §1

HepG2 cells = experiment: Cell growth inhibition assay (MTT); assay type: cell-based, human; conditions: Homo sapiens, HepG2, 72 h after drug exposure
Protocol: as §2, §1

T98G cells = experiment: Cell growth inhibition assay (MTT); assay type: cell-based, human; conditions: Homo sapiens, T98G, 72 h after drug exposure
Protocol: as §2, §1

LNCaP cells = experiment: Cell growth inhibition assay (MTT); assay type: cell-based, human; conditions: Homo sapiens, LNCaP, 72 h after drug exposure
Protocol: as §2, §1

HT-29 cells [5] = experiment: Cell growth inhibition assay (MTT); assay type: cell-based, human; conditions: Homo sapiens, HT-29, 72 h after drug exposure
Protocol: as §2, §1

PC-3 cells = experiment: Cell growth inhibition assay (MTT); assay type: cell-based, human; conditions: Homo sapiens, PC-3, 72 h after drug exposure
Protocol: as §2, §1

HeLa cells [6] = test system: HeLa cells; design: method as in PMID 25970265; conditions: read-out: IC50 cell proliferation of HeLa cells; cited from earlier work
[7] = the rest of the tumor cell lines (other than HeLa, HepG2, MCF7, U87MG)

| Structure (SMILES) | solubility at 72 h ([1]; pH 7, aqueous buffer) | IC50 (bovine brain tubulin) | IC50 (HEK-293 cells) | IC50 (HT-29 cells [3]) | IC50 (GL261 cells) | IC50 (HeLa cells [4]) | IC50 (U87MG cells) | IC50 (MCF7 cells) | IC50 (HepG2 cells) | IC50 (T98G cells) | IC50 (LNCaP cells) | IC50 (HT-29 cells [5]) | IC50 (PC-3 cells) | IC50 (tumor cell lines; HeLa, HepG2, MCF7, and U87MG) | IC50 (tumor cell lines; [7]) | other results |
| --- | --- | --- | --- | --- | --- | --- | --- | --- | --- | --- | --- | --- | --- | --- | --- | --- |
| COc1ccc(/C=C\c2cc(OC)c(OC)c(OC)c2)cc1O [CA-4, combretastatin A-4, reference compound] | 1.1 µg/mL (≈ 3.48 µM) | […] | – | – | – | – | – | – | – | – | – | – | – | – | – | water solubility [2]: 1 µg/mL (≈ 3.16 µM) |
| COc1ccc2nc(N(C=O)Cc3ccccn3)sc2c1 [Compound 13, N-(6-methoxybenzo[d]thiazol-2-yl)-N-(pyridin-2-ylmethyl)formamide] | 90 µg/mL (≈ 301 µM) | 5000 nM | 9310 nM | 540 nM | 195 nM | 331 nM | 254 nM | 221 nM | 321 nM | 327 nM | 315 nM | 557 nM | 423 nM | – | – | IC50 (tumor cell lines; Homo sapiens, MCF7, glioblastoma and MCF7 cells): ~200 nM; IC50 (tumor cell lines; all the cell lines): 300 to 500 nM; % TPI (bovine brain tubulin; compounds tested at 10 µM, with respect to the negative control): 80% |
| Cc1cc2nc(/C=C/c3cccnc3)sc2cc1C [MI181, reference compound] | – | 4600 nM | – | – | – | – | – | – | – | – | – | – | – | – | – | IC50 (HeLa cells [6]): 17 nM; solubility at 72 h ([1]; aqueous buffer): 5.6 µg/mL (≈ 21 µM) |
| COc1ccc2nc(NCc3cccnc3)sc2c1 [Compound 2, 6-methoxy-N-(pyridin-3-ylmethyl)benzo[d]thiazol-2-amine] | 57 µg/mL (≈ 210 µM) | > 10000 nM | > 10000 nM | 2150 nM | 1910 nM | 1270 nM | 1320 nM | 1170 nM | 1190 nM | 2110 nM | 1430 nM | 2230 nM | 1550 nM | ~1000 nM | 2000 to 3000 nM | – |
| COc1ccc2nc(NCc3ccncc3)sc2c1 [Compound 3, 6-methoxy-N-(pyridin-4-ylmethyl)benzo[d]thiazol-2-amine] | 55 µg/mL (≈ 203 µM) | > 10000 nM | > 10000 nM | 3270 nM | 2030 nM | 1450 nM | 1510 nM | 1740 nM | 1230 nM | 2270 nM | 2010 nM | 3390 nM | 3310 nM | ~1000 nM | 2000 to 3000 nM | – |
